Article PMC9356783, “Succinimide Derivatives as Antioxidant Anticholinesterases, Anti-α-Amylase, and Anti-α-Glucosidase: In Vitro and In Silico Approaches” (Evidence-based Complementary and Alternative Medicine : eCAM, 2022)
“And” between values parts separate entries of the source, which are not always exact repeats. Equal values may be shown once.

Assays:
[1] = DPPH radical scavenging assay; settings: for IC50: read-out: DPPH free radicals scavenging IC50
Protocol: A previously reported method for DPPH radical scavenging activity was used to determine the anti-oxidant activity of the synthetic compounds with insignificant modification. A solution of DPPH, e.g., (50 µL of 1.0 × 10^−3 M), was prepared freshly and then added to CH3OH (methyl alcohol). A solvent like methanol was used as a control group. The mixture was then incubated for 30 minutes at 25°C. A spectrophotometer is used to calculate the DPPH free radicals at specific wavelength like 517 nm. After the incubation period, Trolox (drug) was used as the control group (positive). The anti-oxidant activity was determined using the following formula:(1) Percent Inhibition=Absorbancecontrol−Absorbancetest sample/Absorbancecontrol×100.

[2] = ABTS radical scavenging assay; settings: for IC50: read-out: ABTS free radicals scavenging IC50
Protocol: A previously reported method for ABTS radical scavenging assay was used to determine the anti-oxidant activity of the synthetic compounds with negligible modification. The stock solution was prepared, e.g., 7 mM ABTS solution and 2.4 mM of potassium persulfate solution, and then mixed in equal amounts for about 16 hours. The stock solution was then diluted with methyl alcohol. Using a spectrophotometer, the absorption (0.7 ± 0.02) units at 734 nm wavelength were identified. In this assay, the solution was prepared freshly. The ABTS solution (150 µl) was mixed with the synthesized compounds (50 µl) and then reserved in darkness for about 10 minutes. The same procedure was repeated 3 times and then the results were verified using mean ± standard deviation. A solvent, e.g., methanol, was used as blank and the standard (butyl hydroxytoluen in methanol) were run at the same time. The absorbance was checked at a wavelength of 734 nm by utilizing a microplate reader.

[3] = biological target: T1, butyrylcholinesterase (BChE) (Equus caballus, UniProt P81908); test: biochemical; assay type: biochemical
T1 construct: (BChE) butyrylcholinesterase from equine serum; purchased Sigma Aldrich (local seller); host or cells: equine serum (natural source)
T1 sequence (P81908 whole entry): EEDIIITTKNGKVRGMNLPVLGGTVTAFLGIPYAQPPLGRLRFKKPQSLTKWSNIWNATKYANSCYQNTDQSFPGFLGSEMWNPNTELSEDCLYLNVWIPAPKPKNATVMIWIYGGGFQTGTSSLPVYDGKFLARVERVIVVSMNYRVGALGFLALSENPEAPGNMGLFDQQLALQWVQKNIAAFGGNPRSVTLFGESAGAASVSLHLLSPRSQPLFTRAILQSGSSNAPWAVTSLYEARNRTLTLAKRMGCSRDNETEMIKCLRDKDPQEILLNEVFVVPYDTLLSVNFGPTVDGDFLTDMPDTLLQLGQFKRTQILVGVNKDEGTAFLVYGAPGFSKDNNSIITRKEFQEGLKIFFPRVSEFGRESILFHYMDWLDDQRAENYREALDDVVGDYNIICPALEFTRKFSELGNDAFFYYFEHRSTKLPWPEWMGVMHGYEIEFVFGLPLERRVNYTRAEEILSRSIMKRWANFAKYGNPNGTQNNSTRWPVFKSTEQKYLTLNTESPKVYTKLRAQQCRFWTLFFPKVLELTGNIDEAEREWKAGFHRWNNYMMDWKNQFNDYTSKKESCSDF
Protocol: (§1) In Ellman's test, enzymes like (BChE) butyrylcholinesterase from equine serum and (AChE) acetylcholinesterase from electric eel were designated for studying the enzyme inhibitory capacity of the new synthesized compounds [33, 34].
(§2) Synthetic compounds in concentration ranging from 31.25 to 500 µg/ml, KH2PO4 (13.6 g/L) and K2HPO4 (17.4 g/L), were dissolved in 0.1 M phosphate buffer solution. After mixing, they were combined in 6 and 94% ratio, to make 0.1 M and 8.0 phosphate buffer solutions having […]. Potassium hydroxide was used to change the pH. The freshly prepared buffer […], AChE (518 U/mg solid), and BChE (7–16 U/mg) were diluted to achieve final absolute concentrations of 0.01 U/ml and 0.03 U/ml, respectively. In distilled water, BChI (0.0005 M), DTNB iedithio bis-nitrobenzoic acid solution (0.0002273 M), and AChI were prepared and then kept in the refrigerator [35].
(§3) After that, the substrate solution (5 μl) was added into the solution present in mixture form and was held in a water bath for 15 minutes at 30°C. Absorbance was measured at 412 nm using a double beam spectrophotometer. […] At 30°C, the absorbance and the time of the reaction were measured at 30°C for four minutes and repeated three times.

[4] = biological target: T2, acetylcholinesterase (AChE) (Electrophorus electricus, UniProt O42275); test: biochemical; assay type: biochemical
T2 construct: (AChE) acetylcholinesterase from electric eel; purchased Sigma Aldrich (local seller); host or cells: electric eel (natural source)
T2 sequence (O42275 24-633): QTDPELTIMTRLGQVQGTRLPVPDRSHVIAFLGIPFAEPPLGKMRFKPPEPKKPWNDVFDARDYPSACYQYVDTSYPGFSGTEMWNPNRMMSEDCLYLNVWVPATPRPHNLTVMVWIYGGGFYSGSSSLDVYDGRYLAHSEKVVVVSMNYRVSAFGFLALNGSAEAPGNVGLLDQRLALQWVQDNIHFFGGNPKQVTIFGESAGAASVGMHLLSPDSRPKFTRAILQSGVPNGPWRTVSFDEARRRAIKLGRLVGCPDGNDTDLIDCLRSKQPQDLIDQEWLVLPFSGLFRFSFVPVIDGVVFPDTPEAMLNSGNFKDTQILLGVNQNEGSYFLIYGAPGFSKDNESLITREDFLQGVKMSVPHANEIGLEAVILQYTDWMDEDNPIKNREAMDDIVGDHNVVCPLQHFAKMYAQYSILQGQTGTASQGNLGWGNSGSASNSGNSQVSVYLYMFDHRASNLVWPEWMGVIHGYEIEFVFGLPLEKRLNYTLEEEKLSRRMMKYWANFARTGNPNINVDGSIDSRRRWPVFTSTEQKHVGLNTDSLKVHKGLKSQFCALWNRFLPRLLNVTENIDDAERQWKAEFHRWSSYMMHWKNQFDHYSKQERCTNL
Protocol: as §1, §2, §3

α-amylase = biological target: T3, α-amylase (Sus scrofa, UniProt P00690); test: In vitro α-amylase inhibition assay; assay type: biochemical
T3 sequence (P00690 16-511): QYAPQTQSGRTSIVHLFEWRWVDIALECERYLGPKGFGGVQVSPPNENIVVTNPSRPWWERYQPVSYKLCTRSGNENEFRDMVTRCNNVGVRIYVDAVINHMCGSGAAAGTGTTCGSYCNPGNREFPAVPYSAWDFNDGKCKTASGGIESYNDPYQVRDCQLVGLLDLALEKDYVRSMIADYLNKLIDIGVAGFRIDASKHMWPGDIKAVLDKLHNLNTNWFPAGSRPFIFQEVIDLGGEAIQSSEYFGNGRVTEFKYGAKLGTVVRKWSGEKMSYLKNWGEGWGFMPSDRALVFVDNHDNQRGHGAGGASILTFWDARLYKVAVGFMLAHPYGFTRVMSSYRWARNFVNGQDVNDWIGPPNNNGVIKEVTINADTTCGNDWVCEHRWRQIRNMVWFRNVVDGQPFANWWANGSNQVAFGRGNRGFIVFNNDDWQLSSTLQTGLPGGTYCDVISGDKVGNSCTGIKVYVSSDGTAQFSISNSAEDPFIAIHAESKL
Protocol: In this assay, previously documented protocols were used. […] Starch solution was then mixed with the above solution and then incubated for about 20 minutes at 37°C. After incubation, the reactant mixture was then kept in a water bath for some time at 100°C. Color intensity was measured using a microplate reader at 656 nm. To determine percentage inhibition, the following formula was used:(4) Percent Inhibition=AbsorbanceControl−AbsorbanceSample/Absorbance Control×100.

α-glucosidase = α-glucosidase (Saccharomyces cerevisiae, UniProt P53341); test: α-Glucosidase inhibitory assay; assay type: biochemical
Chain of α-glucosidase (P53341 whole entry): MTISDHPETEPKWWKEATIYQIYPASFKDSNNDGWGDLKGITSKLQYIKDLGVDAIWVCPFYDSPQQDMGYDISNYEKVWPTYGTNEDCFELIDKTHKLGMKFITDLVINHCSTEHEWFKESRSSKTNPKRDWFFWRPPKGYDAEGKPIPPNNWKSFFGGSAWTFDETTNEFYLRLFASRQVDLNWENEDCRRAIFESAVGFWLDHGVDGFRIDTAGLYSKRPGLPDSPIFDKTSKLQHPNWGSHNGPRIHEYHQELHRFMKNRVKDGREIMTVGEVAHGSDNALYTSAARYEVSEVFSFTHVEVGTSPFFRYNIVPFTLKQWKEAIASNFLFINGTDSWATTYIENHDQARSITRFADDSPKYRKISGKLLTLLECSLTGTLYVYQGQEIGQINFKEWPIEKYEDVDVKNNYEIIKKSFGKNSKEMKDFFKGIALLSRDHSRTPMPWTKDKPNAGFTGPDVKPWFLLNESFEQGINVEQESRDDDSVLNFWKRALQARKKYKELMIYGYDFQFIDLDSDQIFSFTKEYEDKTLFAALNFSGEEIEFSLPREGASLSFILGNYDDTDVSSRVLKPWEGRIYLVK
Protocol: In this assay, glucopyranoside is added to the solvent (phosphate buffer). Various concentrations of the synthetized compounds like 500, 250, 125, 62.5, and 31.25 µg/ml were used for preparing the sample solutions. Glucosidase in distilled water (0.5 µg/ml) was added to the above mixture. This mixture was then incubated for 20 minutes at 37°C [36]. After the incubation period, the reaction mixture was ceased by the addition of hydrochloric acid. The color intensity was determined at 540 nm wavelength using a spectrophotometer. The formula which was used to determine percentage inhibition is:(3) Percent Inhibition=AbsorbanceControl−AbsorbanceSample/Absorbance Control×100.

[5] = fifth value of series, presumably 31.25
[6] = first value of series, concentration not given (method 31.25 to 500 µg/ml)
[7] = fourth value of series, presumably 62.5
[8] = second value of series, presumably 250
[9] = third value of series, presumably 125
[10] = 500 μmol/mL (first value of the series)

Compound: O=C1CCCCCC1C1CC(=O)N(c2ccccc2)C1=O (centres unmarked) [MSJ7, 3-(2-oxocycloheptyl)-1-phenylpyrrolidine-2,5-dione]
- IC50 [1]: 31.4 µM
- IC50 [2]: 36.3 µM

Compound: CC1CCC(=O)C(C2CC(=O)N(c3ccccc3)C2=O)C1 (centres unmarked) [MSJ4, 3-(5-methyl-2-oxocyclohexyl)-1-phenylpyrrolidine-2,5-dione]
- IC50 [1]: 32 µM
- IC50 [2]: 48.7 µM

Compound: O=C1CCOCC1C1CC(=O)N(c2ccccc2)C1=O (centres unmarked) [MSJ6, 3-(4-oxotetrahydro-2H-pyran-3-yl)-1-phenylpyrrolidine-2,5-dione]
- IC50 [1]: 44.9 µM
- IC50 [2]: 55.1 µM

Compound: O=C1CCCC1C1CC(=O)N(c2ccccc2)C1=O (centres unmarked) [MSJ8, 3-(2-oxocyclopentyl)-1-phenylpyrrolidine-2,5-dione]
- IC50 [1]: 29.2 µM
- IC50 [2]: 25.2 µM

Compound: CC1CCC(=O)C(C2CC(=O)N(Cc3ccccc3)C2=O)C1 (centres unmarked) [MSJ5, 1-benzyl-3-(5-methyl-2-oxocyclohexyl)pyrrolidine-2,5-dione]
- IC50 [1]: 39 µM
- IC50 [2]: 51.2 µM

Compound: CC(=O)CC1CC(=O)N(c2ccccc2)C1=O (centres unmarked) [MSJ9, 3-(2-oxopropyl)-1-phenylpyrrolidine-2,5-dione]
- IC50 [1]: 53 µM
- IC50 [2]: 38.1 µM

Compound: CC(=O)C(C)(C)C1CC(=O)N(c2ccccc2)C1=O (centres unmarked) [MSJ10, 3-(2-methyl-3-oxobutan-2-yl)-1-phenylpyrrolidine-2,5-dione]
- percent radical scavenging (DPPH) ([1]; 62.5 μmol/mL (fourth value)): 79.67 ± 0.61%
- percent radical scavenging (DPPH) ([1]; 125 μmol/mL (third value)): 85.79 ± 0.63%
- percent radical scavenging (DPPH) ([1]; 250 μmol/mL (second value)): 90.90 ± 0.48%
- IC50 [1]: 2.52 µM
- percent anti-BChE potential [3, 5]: 73.89 ± 0.49%
- percent anti-BChE potential [3, 6]: 91.36% and 91.36 ± 0.39%
- percent anti-BChE potential [3, 7]: 78.26 ± 0.43%
- IC50 ([3]; read-out: IC50 against BChE): 10.7 µM
- percent anti-BChE potential [3, 8]: 87.15 ± 1.07%
- percent anti-BChE potential [3, 9]: 83.00 ± 0.44%
- percent anti-AChE potential [4, 5]: 78.58 ± 1.12%
- percent anti-AChE potential [4, 6]: 93.20% and 93.20 ± 0.10%
- percent anti-AChE potential [4, 7]: 83.40 ± 0.25%
- IC50 ([4]; read-out: IC50 against AChE): 4.97 µM
- percent anti-AChE potential [4, 8]: 90.09 ± 0.32%
- percent anti-AChE potential [4, 9]: 88.67 ± 1.20%
- percent inhibitions (ABTS) ([2]; 62.5 µmo/mL (fourth value)): 79.67 ± 0.61%
- percent inhibitions (ABTS) ([2]; 125 µmo/mL (third value)): 85.79 ± 0.63%
- percent inhibitions (ABTS) ([2]; 250 µmo/mL (second value)): 90.90 ± 0.48%
- IC50 [2]: 3.29 µM

Compound: O=C1CCCCC1C1CC(=O)N(Cc2ccccc2)C1=O (centres unmarked) [MSJ2, 1-benzyl-3-(2-oxocyclohexyl) pyrrolidine-2,5-dione]
- percent radical scavenging (DPPH) ([1]; 31.25 μmol/mL (fifth value)): 73.45 ± 0.65%
- percent radical scavenging (DPPH) ([1]; 62.5 μmol/mL (fourth value)): 78.23 ± 0.44%
- percent radical scavenging (DPPH) ([1]; 125 μmol/mL (third value)): 81.50 ± 0.61%
- percent radical scavenging (DPPH) ([1]; 250 μmol/mL (second value)): 84.47 ± 0.46%
- percent radical scavenging (DPPH) [1, 10]: 86.47 ± 0.70%
- IC50 [1]: 2.59 µM
- percent anti-BChE potential [3, 6]: 97.30%
- percent anti-AChE potential [4, 6]: 91.90%
- percent inhibitions (ABTS) ([2]; 31.25 µmo/mL (fifth value)): 74.65 ± 1.34%
- IC50 [2]: 7.32 µM

Compound: O=C1CCCCC1C1CC(=O)N(c2ccccc2)C1=O (centres unmarked) [MSJ1, 3-(2-oxocyclohexyl)-1-phenylpyrrolidine-2,5-dione]
- IC50 [1]: 34.6 µM
- IC50 [2]: 29.4 µM

Compound: C[C@H]1O[C@H](O[C@H]2[C@H](O)[C@@H](O)[C@@H](O[C@H]3[C@H](O)[C@@H](O)C(O)O[C@@H]3CO)O[C@@H]2CO)[C@H](O)[C@@H](O)[C@@H]1N[C@H]1C=C(CO)[C@@H](O)[C@H](O)[C@H]1O (some centres unmarked) [Acarbose]
- α-amylase percent inhibition (α-amylase; 31.25 µmol/mL): 75.45 ± 0.90%
- α-amylase percent inhibition (α-amylase; 62.5 µmol/mL): 77.61 ± 0.43%
- α-amylase percent inhibition (α-amylase; 125 µmol/mL): 82.40 ± 0.20%
- α-amylase percent inhibition (α-amylase; 500 µmol/mL): 91.90 ± 0.96%
- α-glucosidase % inhibition (α-glucosidase; 31.25 µmol/mL): 71.22 ± 0.47%
- α-glucosidase % inhibition (α-glucosidase; 62.5 µmol/mL): 76.44 ± 0.28%
- α-glucosidase % inhibition (α-glucosidase; 125 µmol/mL): 80.90 ± 1.11%
- α-glucosidase % inhibition (α-glucosidase; 250 µmol/mL): 85.03 ± 2.16%
- α-glucosidase % inhibition (α-glucosidase; 500 µmol/mL): 94.40 ± 0.03%

Compound: O=C1O[C@H]([C@@H](O)CO)C(O)=C1O [Ascorbic acid, reference compound]
- percent radical scavenging (DPPH) ([1]; 31.25 μmol/mL (fifth value)): 86.42 ± 0.43%
- percent radical scavenging (DPPH) ([1]; 62.5 μmol/mL (fourth value)): 88.22 ± 1.28%
- percent radical scavenging (DPPH) ([1]; 125 μmol/mL (third value)): 91.52 ± 0.66%
- percent radical scavenging (DPPH) ([1]; 250 μmol/mL (second value)): 93.56 ± 0.45%
- percent radical scavenging (DPPH) [1, 10]: 98.65 ± 1.32%
- IC50 [1]: 6.25 µM
- IC50 [2]: 4.66 µM

Compound: O=C1CCCCC1C1CC(=O)N(c2ccc(Br)cc2)C1=O (centres unmarked) [MSJ3, 1-(4-bromophenyl)-3-(2-oxocyclohexyl) pyrrolidine-2,5-dione]
- IC50 [1]: 33.5 µM
- IC50 [2]: 24 µM
